# According to patent US20250296934A1, “AZEPINOINDOLES AND METHODS OF PREPARATION THEREOF” (priority 2022, published 2025):
# Where two headings read alike, the source gives them in different places.
# Assays:
# 5-HT4 = 5-HT4 (Homo sapiens, UniProt Q13639); assay: 5-HT receptor activity (Table 3), 5-HT4; assay type: cell-based
# mice = assay: Head Twitch Response (HTR) in mice; assay type: in vivo; settings: Mus musculus, 1 h, measured over a 60 minute interval
# Procedure: Head Twitch Response (HTR) was assessed using a head-mounted neodymium magnet and a magnetometer detection coil, as described in Halberstadt et al., Psychopharmacology (Berl.), 2013, 227 (4): 727-739. Table 8 below summarizes the ED50 in head twitch (as measured over a 60 minute interval) in mice as a result of Compound 1 as compared to psilocybin.
# 5-HT2C [1] = biological target: T1, 5-HT2C (Homo sapiens, UniProt P28335); assay: cell-based; assay type: cell-based; parameters: expressed in transfected cells; host or cells: HEK293T
# T1 sequence (P28335 33-458): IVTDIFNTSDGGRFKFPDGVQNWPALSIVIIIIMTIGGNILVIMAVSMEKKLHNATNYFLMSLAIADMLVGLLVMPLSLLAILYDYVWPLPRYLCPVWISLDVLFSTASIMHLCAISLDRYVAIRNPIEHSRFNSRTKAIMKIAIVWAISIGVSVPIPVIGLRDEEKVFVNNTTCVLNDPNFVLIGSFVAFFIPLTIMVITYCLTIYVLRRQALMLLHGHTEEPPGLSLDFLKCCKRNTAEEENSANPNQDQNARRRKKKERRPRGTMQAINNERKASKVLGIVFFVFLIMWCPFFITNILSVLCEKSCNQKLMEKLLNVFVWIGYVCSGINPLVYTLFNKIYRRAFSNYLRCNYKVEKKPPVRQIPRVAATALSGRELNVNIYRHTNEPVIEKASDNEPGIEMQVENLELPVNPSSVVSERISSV
# 5-HT1A = biological target: T2, 5-HT1A (Homo sapiens, UniProt P08908); assay: 5-HT receptor activity (Table 3), 5-HT1A; assay type: cell-based
# T2 sequence (P08908 1-422): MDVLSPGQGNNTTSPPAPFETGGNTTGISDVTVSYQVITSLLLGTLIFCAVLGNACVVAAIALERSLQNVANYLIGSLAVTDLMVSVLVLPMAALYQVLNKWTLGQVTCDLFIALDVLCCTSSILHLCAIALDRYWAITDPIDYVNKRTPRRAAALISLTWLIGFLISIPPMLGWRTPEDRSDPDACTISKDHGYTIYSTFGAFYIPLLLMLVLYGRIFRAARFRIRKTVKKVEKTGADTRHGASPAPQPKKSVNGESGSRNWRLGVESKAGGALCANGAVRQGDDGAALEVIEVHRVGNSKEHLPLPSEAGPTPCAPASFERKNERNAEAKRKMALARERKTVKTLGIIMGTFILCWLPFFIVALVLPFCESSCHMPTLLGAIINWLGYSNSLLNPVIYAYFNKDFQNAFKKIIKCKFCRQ
# hepatocyte [2] = assay: In vitro hepatocyte clearance, mouse; assay type: in vitro ADME; settings: Mouse
# Procedure: (§1) Additional experimentation was performed on compounds 1, W5, and A93. Table 6a, 6b and 6c summarize, among other things, the anticipated hepatic clearance of compounds 1, W5 and A93 respectively, in various species, as specified in Table 6a, 6b and 6c and as determined by calculating the in vitro hepatocyte clearance over time and scaling such rate with such species' hepatocyte count and the anticipated liver blood flow rate in such species.
# [3] = In vitro hepatocyte clearance, mouse; assay type: in vitro ADME; settings: Mouse hepatocytes
# Procedure: as §1
# 5-HT2B = 5-HT2B (Homo sapiens, UniProt P41595); assay: 5-HT receptor activity (Table 3), 5-HT2B; assay type: cell-based
# 5-HT2A [4] = biological target: T3, 5-HT2A (Homo sapiens, UniProt P28223); assay: 5-HT receptor activity (Table 3), 5-HT2A; assay type: cell-based
# 5-HT2C [5] = biological target: T1, 5-HT2C; assay: cell-based; settings: Table 3
# 5-HT1E = 5-HT1E (Homo sapiens, UniProt P28566); assay: 5-HT receptor activity (Table 3), 5-HT1E; assay type: cell-based
# 5-HT1D = 5-HT1D (Homo sapiens, UniProt P28221); assay: 5-HT receptor activity (Table 3), 5-HT1D; assay type: cell-based
# hepatocyte [6] = assay: In vitro hepatocyte clearance, human; assay type: in vitro ADME; settings: Human
# Procedure: as §1
# [7] = In vitro hepatocyte clearance, human; assay type: in vitro ADME; settings: Human hepatocytes
# Procedure: as §1
# 5-HT7 = 5-HT7 (Homo sapiens, UniProt P34969); assay: 5-HT receptor activity (Table 3), 5-HT7; assay type: cell-based
# [8] = test system: SafetyScreen44™ panel hits; assay: Follow up functional assays of SafetyScreen44 hits; parameters: species or system human
# Procedure: Various compounds disclosed herein were subjected to an in vitro SafetyScreen44™ panel for identifying off-target activity. Compounds of interest that are identified in the panel are then tested in follow up functional assays to identify if such compounds have a significant off-target risk. […] It is predicted that other compounds share similar characteristics with compound 1 and also lack of the off-target activity.
# 5-HT2A [9] = biological target: T3, 5-HT2A; assay: 5-HT2A Gq dissociation BRET functional assay; assay type: cell-based; parameters: expressed in transfected cells; host or cells: HEK293T
# [10] = normalized to % 5-HT stimulation
# T3 sequence (P28223 whole entry): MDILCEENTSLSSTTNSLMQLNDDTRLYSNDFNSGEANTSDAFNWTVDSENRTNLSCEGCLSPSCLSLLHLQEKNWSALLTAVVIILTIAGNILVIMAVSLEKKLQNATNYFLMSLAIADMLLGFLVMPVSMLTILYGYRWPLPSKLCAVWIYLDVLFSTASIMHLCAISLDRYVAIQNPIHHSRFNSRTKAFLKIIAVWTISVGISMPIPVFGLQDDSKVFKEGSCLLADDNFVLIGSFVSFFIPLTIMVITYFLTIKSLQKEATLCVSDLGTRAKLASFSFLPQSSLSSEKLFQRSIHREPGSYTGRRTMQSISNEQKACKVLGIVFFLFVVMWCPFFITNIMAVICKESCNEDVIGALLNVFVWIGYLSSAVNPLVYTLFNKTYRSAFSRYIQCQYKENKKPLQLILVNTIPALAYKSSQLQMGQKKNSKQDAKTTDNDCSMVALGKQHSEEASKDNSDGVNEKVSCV
# Chain of 5-HT1E (P28566 whole entry, species assumed): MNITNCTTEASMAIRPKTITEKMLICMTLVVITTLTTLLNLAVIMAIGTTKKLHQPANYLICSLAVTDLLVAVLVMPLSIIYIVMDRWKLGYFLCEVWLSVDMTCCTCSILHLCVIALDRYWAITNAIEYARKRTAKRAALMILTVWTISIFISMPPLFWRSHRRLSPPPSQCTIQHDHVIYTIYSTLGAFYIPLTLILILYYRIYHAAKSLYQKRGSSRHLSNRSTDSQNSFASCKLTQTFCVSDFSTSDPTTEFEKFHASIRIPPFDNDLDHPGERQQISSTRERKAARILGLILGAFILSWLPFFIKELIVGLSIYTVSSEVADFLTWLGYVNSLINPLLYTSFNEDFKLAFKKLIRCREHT
# Chain of 5-HT2B (P41595 whole entry, species assumed): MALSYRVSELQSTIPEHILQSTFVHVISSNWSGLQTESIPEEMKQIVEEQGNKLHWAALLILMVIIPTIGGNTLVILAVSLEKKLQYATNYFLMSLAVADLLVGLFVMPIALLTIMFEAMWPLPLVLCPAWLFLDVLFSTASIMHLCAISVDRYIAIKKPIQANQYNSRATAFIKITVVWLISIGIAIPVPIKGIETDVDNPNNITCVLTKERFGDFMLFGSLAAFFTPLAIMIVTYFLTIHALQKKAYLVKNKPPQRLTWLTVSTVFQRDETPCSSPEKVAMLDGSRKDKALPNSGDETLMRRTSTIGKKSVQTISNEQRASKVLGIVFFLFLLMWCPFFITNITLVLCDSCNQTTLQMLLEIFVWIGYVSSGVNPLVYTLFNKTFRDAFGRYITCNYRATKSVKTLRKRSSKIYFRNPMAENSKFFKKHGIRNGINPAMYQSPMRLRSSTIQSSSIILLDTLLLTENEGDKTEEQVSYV
# Chain of 5-HT1D (P28221 whole entry, species assumed): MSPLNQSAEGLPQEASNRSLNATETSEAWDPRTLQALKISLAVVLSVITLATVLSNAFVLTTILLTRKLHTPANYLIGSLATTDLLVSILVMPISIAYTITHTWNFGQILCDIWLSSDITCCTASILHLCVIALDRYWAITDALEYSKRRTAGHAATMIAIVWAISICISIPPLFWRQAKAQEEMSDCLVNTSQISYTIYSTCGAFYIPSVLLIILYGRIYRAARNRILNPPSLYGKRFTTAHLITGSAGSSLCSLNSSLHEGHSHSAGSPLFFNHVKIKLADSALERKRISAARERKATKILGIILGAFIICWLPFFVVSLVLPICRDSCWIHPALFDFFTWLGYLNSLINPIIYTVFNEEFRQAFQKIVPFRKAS
# Chain of 5-HT7 (P34969 whole entry, species assumed): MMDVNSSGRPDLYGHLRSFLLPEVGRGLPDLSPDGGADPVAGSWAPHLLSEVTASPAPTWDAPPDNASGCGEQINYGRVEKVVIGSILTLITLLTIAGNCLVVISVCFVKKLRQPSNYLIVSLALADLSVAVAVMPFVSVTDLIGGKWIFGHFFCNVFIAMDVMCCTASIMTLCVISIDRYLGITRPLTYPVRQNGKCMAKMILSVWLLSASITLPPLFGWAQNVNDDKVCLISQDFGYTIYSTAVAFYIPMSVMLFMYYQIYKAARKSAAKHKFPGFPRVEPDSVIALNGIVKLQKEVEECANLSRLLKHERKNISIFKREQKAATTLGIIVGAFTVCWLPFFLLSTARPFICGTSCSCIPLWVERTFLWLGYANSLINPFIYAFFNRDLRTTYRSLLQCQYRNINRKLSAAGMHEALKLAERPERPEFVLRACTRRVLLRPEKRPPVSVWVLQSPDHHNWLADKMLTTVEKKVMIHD
# Chain of 5-HT4 (Q13639 whole entry, species assumed): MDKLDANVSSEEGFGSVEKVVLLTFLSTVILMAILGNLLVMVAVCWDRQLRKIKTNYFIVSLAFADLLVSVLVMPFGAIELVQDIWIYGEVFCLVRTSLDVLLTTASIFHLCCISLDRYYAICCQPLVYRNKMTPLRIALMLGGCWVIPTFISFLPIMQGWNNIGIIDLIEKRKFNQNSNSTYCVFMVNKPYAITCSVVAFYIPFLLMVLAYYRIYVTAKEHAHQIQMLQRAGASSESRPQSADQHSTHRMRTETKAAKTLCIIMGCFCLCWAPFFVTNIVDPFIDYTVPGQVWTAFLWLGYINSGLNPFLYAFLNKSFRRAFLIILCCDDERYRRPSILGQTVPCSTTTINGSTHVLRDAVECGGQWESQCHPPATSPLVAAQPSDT
compound,measurement,setting,value
"Cc1ccc(O)c2c3c([nH]c12)CCNCC3 [Cpd #1 (Pharm-136), 7-Methyl-1,2,3,4,5,6-hexahydroazepino[4,5-b]indol-10-ol]",EC50,5-HT4,Not active
same,Count (n. of wells),"TA1535; TA1535 + S9, 1.0E−04M",0 n. of wells
same,Significance,"TA1535; TA1535 + S9, 1.0E−04M",Negative
same,Count (n. of wells),"TA1535; TA1535 + S9, 1.0E−05M",0 n. of wells
same,Significance,"TA1535; TA1535 + S9, 1.0E−05M",Negative
same,Count (n. of wells),"TA1535; TA1535 + S9, 5.0E−05M",0 n. of wells
same,Significance,"TA1535; TA1535 + S9, 5.0E−05M",Negative
same,Count (n. of wells),"TA1535; TA1535 + S9, 5.0E−06M",0 n. of wells
same,Significance,"TA1535; TA1535 + S9, 5.0E−06M",Negative
same,Count (n. of wells),"TA1535; TA1535 − S9, 1.0E−04M",0 n. of wells
same,Significance,"TA1535; TA1535 − S9, 1.0E−04M",Negative
same,Count (n. of wells),"TA1535; TA1535 − S9, 1.0E−05M",0 n. of wells
same,Significance,"TA1535; TA1535 − S9, 1.0E−05M",Negative
same,Count (n. of wells),"TA1535; TA1535 − S9, 5.0E−05M",0 n. of wells
same,Significance,"TA1535; TA1535 − S9, 5.0E−05M",Negative
same,Count (n. of wells),"TA1535; TA1535 − S9, 5.0E−06M",0 n. of wells
same,Significance,"TA1535; TA1535 − S9, 5.0E−06M",Negative
same,ED50,mice,3.6 mg/kg
same,EC50,"5-HT2C [1]; Gq dissociation BRET, HEK293T",0.5 nM
same,5-HT2C BRET Eff,5-HT2C [1]; [10],101%
same,EC50,5-HT1A,4000 nM
same,Eff,5-HT1A,73%
same,Hepatic Extraction Ratio (E),hepatocyte [2],0.81
same,Predicted hepatic CL,hepatocyte [2],73.10 mL/min/kg
same,hepatocyte CLint,[3],33 µL/min/1e6 cells
same,half-life,[3]; read-out: In vitro T1/2,42.2 min
same,CLint scaled,[3]; read-out: Scale-up Clint,389 mL/min/kg
same,EC50,5-HT2B,4.2 nM
same,Eff,"5-HT2B; 5-HT2B, Table 3",50%
same,EC50,5-HT2A [4],0.5 nM
same,Eff,"5-HT2A [4]; 5-HT2A, Table 3",101%
same,EC50,5-HT2C [5],0.5 nM
same,Eff,5-HT2C [5],95%
same,EC50,5-HT1E,966 nM
same,Eff,5-HT1E,94%
same,EC50,5-HT1D,326 nM
same,Eff,5-HT1D,72%
same,Hepatic Extraction Ratio (E),hepatocyte [6],<0.25
same,Predicted hepatic CL,hepatocyte [6],<5.17 mL/min/kg
same,hepatocyte CLint,[7],< 2.71 µL/min/1e6 cells
same,half-life,[7]; read-out: In vitro T1/2,> 512 min
same,CLint scaled,[7]; read-out: Scale-up Clint,< 6.89 mL/min/kg
same,EC50,5-HT7,Not active
same,Follow up studies,[8],No significant off-
same,Follow up studies,[8]; listed as compound 1,does not possess significant off-target activity
same,EC50,5-HT2A [9],0.6 nM
same,5-HT2A BRET Eff,5-HT2A [9]; [10],102%
